Results published in patent US20190209618A1, “METHODS AND COMPOSITIONS FOR EXPANSION OF HEMATOPOIETIC STEM AND/OR PROGENITOR CELLS EMPLOYING A CYTOCHROME P450 1B1 (CYP1B1) INHIBITOR OR A MUSASHI-2 (MSI2) ACTIVATOR” (McMaster University, priority 2016, published 2019).
Where two headings read alike, the source gives them in different places.

Legend:
Lin− CD34+CB HSPCs = assay: High throughput screen of CYP family inhibitors for in vitro HSPC expansion
Procedure: FIG. 16: Primary screen for inhibitors of Cytochrome […] oxidases and promotion of in vitro HSPC expansion by primitive marker expression. 1000 flow sorted Lin− CD34+CB HSPCs were plated per well of a 96-well plate and test compounds were added at three doses (0.1 uM, 1.0 uM, 10 uM) in triplicate. Cell cultures were refreshed with medium every 3 days and at day 10 cells were counted and assessed for CD34 marker expression. […] Columns marked by “x” have a >2-fold increase compared to DMSO. Columns marked by “o” show at least a 1.5-fold increase compared to DMSO control. […] Data shown as mean+/−SEM from n=3 cultures.
FIG. 17: Primary screen for inhibitors of Cytochrome […] oxidases and promotion of in vitro HSPC expansion by total number CD34 marked cells. 1000 flow sorted Lin− CD34+CB HSPCs were plated per well of a 96-well plate and test compounds were added at three doses (0.1 uM, 1.0 uM, 10 uM) in triplicate. Cell cultures were refreshed with medium every 3 days and at day 10 cells were counted and assessed for CD34 marker expression. […] Columns marked by “x” have a >2-fold increase compared to DMSO. Columns marked by “o” show at least a 1.5-fold increase compared to DMSO control. […] Data shown as mean+/−SEM from n=3 cultures.
A screening approach was undertaken that tested the function of 3 alkaloid, 9 coumarin, and 17 flavonoid based compounds ([…], Table 1). The screening approach used 96-well plates seeded with 1000 FACS-purified CD34+ cells and treatment with 3 concentrations of each compound performed in triplicate culture wells (9 wells total per compound). Cells were cultured for 10 days and resultant growth was measured for cell number and surface marker expression by automated flow cytometer (MACS Quant).

CYP enzymes = conditions: cited from earlier work
AHR = AHR ChIP-seq comparison to downregulated gene sets; parameters: species or system human; conditions: ChIP-seq-identified AHR targets; SR1 500 nM, UM171 35 nM gene sets
Excerpt: Percentage of down regulated genes with AHR bound regions was then graphed for each gene set. P-values were generated with Fisher's exact test between gene lists.

Lin− CD34+ cells [1] = assay: MSI2 OE and control suspension cultures with AHR antagonist SR1; type: cell-based, human; conditions: SR1 750 nM vs DMSO, 10 days
Procedure: GFP^+ cells were isolated (20,000 cells per culture) and allowed to proliferate with or without SR1 for an additional 7 days at which point they were counted and immunophenotyped for CD34 and CD133 expression. […] GFP^+ cells were isolated (20,000 cells per culture) and allowed to proliferate with FICZ (200 nM; Santa Cruz Biotechnology) or DMSO (0.1%) for an additional 3 days at which point they were immunophenotyped for CD34 and CD133 expression.

Lin− CD34+ cells [2] = assay: HSPC expansion with TMS; type: cell-based, human; conditions: TMS 10 μM vs 0.1% DMSO, during culture
Procedure: Lin^− CD34^+ cells were cultured for 72 hours (lentiviral treated but non-transduced flow-sorted GFP^− cells) in StemSpan medium containing growth factors IL-6 (20 ng/ml), SCF (100 ng/ml), FLT3-L (100 ng/ml) and TPO (20 ng/ml) before the addition of the CYP1B1 inhibitor TMS (Abcam) at a concentration of 10 μM or mock treatment with 0.1% DMSO. Equal numbers of cells (12,000 per condition) were then allowed to proliferate for 7 days at which point they were counted and immunophenotyped for CD34 and CD133 expression.

[3] = summary statement referring to the Examples

Structure (SMILES): COc1ccc(-c2cc(=O)c3c(O)cc(O)cc3o2)cc1 [Acacetin, 5,7-dihydroxy-2-(4-methoxyphenyl)-4H-1-benzopyran-4-one]
- self-renewal and expansion of hematopoietic stem and progenitor cell cultures (Lin− CD34+CB HSPCs; [3]): promote the self-renewal and expansion

Structure (SMILES): O=c1cc(-c2ccccc2)oc2cc(O)cc(O)c12 [Chrysin, 5,7-Dihydroxy-2-phenyl-4H-chromen-4-one]
- self-renewal and expansion of hematopoietic stem and progenitor cell cultures (Lin− CD34+CB HSPCs): promote the self-renewal and expansion

Structure (SMILES): O=c1c(-c2ccc(O)cc2)coc2cc(O)ccc12 [Daidzein, 7-Hydroxy-3-(4-hydroxyphenyl) chromen-4-one]
- IC50 (CYP enzymes): 7.9 µM

Structure (SMILES): O=C1CC(c2ccc(O)cc2)Oc2cc(O)cc(O)c21 (centres unmarked) [Naringenin, 5,7-Dihydroxy-2-(4-hydroxyphenyl)chroman-4-one]
- self-renewal and expansion of hematopoietic stem and progenitor cell cultures (Lin− CD34+CB HSPCs; [3]): promote the self-renewal and expansion

Structure (SMILES): CC(C)n1cnc2c(NCCc3ccc(O)cc3)nc(-c3csc4ccccc34)nc21 [SR1, StemRegenin 1]
- enrichment of direct transcriptional targets of AHR in downregulated gene set compared to UM171 (AHR): 5.6 fold
- increase in percentage of CD34+ cells (Lin− CD34+ cells [1]; MSI2 OE cultures): 4 fold
- increase in percentage of CD34+ cells (Lin− CD34+ cells [1]; control transduced cultures): 8 fold

Structure (SMILES): COc1cc(/C=C/c2ccc(OC)cc2OC)cc(OC)c1 [TMS, (E)-2,3′,4,5′-Tetramethoxystilbene]
- increase in frequency of CD34+ cells (Lin− CD34+ cells [2]): 1.5 fold
- increase in total numbers of CD34+ cells (Lin− CD34+ cells [2]): 2 fold
- % CD34+ at day 10 relative to DMSO (Lin− CD34+CB HSPCs; 1000 CD34+ cells per well, 0.1, 1.0, 10 uM, 10 days): > 2 fold
- self-renewal and expansion of hematopoietic stem and progenitor cell cultures (Lin− CD34+CB HSPCs; [3]): promote the self-renewal and expansion
